Tests used:
Design in all cases: species or system mixed lysate of K562, MV4-11, THP-1, NCI-H1155
[1] = molecular target: Dual specificity testis-specific protein kinase 1 ; TESK1 ; Q15569 (Homo sapiens, UniProt Q15569); conditions: DIA-MS residual binding; binder
[2] = molecular target: T1, Ephrin type-B receptor 2 ; EPHB2 ; P29323 (Homo sapiens, UniProt P29323); conditions: DIA-MS residual binding; binder
T1 sequence (P29323 1-1055): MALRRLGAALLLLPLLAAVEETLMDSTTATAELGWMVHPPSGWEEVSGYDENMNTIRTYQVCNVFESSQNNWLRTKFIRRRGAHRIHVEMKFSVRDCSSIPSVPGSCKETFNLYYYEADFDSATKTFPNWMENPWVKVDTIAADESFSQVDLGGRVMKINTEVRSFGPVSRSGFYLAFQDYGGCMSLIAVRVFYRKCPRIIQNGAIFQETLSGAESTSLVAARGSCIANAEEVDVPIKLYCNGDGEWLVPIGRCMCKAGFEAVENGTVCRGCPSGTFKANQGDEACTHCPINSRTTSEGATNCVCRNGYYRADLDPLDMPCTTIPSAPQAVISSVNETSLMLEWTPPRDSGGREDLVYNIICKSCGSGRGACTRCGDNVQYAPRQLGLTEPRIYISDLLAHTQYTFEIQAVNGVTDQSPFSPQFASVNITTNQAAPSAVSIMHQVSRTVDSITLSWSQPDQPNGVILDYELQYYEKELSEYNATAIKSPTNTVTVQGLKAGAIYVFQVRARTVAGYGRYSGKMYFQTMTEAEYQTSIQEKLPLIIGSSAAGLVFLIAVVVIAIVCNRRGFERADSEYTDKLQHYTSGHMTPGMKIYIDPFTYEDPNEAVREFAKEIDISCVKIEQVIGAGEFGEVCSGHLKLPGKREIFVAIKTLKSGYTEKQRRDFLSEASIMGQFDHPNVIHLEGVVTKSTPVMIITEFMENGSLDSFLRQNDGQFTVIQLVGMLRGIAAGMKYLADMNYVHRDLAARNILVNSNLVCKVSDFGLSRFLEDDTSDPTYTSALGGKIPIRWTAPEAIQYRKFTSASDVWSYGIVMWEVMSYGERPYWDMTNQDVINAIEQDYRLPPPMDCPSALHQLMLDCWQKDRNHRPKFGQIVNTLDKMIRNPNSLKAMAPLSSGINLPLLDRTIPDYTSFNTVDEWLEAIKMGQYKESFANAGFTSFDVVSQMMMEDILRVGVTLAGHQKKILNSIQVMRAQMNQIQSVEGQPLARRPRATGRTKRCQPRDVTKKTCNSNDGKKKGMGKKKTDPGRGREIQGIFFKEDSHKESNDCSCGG

[3] = molecular target: Epithelial discoidin domain-containing receptor 1 ; DDR1 ; Q08345 (Homo sapiens, UniProt Q08345); conditions: binder
[4] = molecular target: Isoform 3 of Membrane-associated tyrosine- and threonine-specific cdc2 ; PKMYT1-3 ; Q99640-3 (Homo sapiens, UniProt Q99640); conditions: binder
[5] = molecular target: Isoform 3 of Serine/threonine-protein kinase SIK3 ; SIK3-7 ; Q9Y2K2-7 (Homo sapiens, UniProt Q9Y2K2); conditions: DIA-MS residual binding; binder
[6] = molecular target: Mitogen-activated protein kinase kinase kinase 4 ; MAP3K4 ; Q9Y6R4 (Homo sapiens, UniProt Q9Y6R4); conditions: binder
[7] = molecular target: Peripheral plasma membrane protein CASK ; CASK ; O14936 (Homo sapiens, UniProt O14936); conditions: DIA-MS residual binding; binder
[8] = molecular target: Phosphatidylinositol 4-kinase alpha ; PI4KA ; P42356 (Homo sapiens, UniProt P42356); conditions: DIA-MS residual binding; binder
[9] = molecular target: Serine/threonine-protein kinase SIK2 ; SIK2 ; Q9H0K1 (Homo sapiens, UniProt Q9H0K1); conditions: DIA-MS residual binding; binder
[10] = molecular target: Tyrosine-protein kinase CSK ; CSK ; P41240 (Homo sapiens, UniProt P41240); conditions: binder
[11] = molecular target: Tyrosine-protein kinase Lyn ; LYN ; P07948 (Homo sapiens, UniProt P07948); conditions: DIA-MS residual binding; binder
Chain of Tyrosine-protein kinase Lyn ; LYN ; P07948 (P07948 whole entry): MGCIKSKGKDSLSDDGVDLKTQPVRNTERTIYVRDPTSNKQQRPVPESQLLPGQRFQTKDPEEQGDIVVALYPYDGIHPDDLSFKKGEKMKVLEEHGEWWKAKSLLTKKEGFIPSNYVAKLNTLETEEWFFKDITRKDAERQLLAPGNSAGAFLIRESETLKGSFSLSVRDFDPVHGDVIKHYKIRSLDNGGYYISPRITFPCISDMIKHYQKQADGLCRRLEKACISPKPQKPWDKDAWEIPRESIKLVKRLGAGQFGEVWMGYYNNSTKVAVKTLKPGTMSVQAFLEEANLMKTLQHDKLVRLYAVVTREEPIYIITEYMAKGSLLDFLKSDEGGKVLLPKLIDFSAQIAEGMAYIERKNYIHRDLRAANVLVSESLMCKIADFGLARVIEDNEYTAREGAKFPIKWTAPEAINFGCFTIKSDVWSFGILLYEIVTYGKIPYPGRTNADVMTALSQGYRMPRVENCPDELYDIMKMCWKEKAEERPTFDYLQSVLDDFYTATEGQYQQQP

Chain of Peripheral plasma membrane protein CASK ; CASK ; O14936 (O14936 whole entry): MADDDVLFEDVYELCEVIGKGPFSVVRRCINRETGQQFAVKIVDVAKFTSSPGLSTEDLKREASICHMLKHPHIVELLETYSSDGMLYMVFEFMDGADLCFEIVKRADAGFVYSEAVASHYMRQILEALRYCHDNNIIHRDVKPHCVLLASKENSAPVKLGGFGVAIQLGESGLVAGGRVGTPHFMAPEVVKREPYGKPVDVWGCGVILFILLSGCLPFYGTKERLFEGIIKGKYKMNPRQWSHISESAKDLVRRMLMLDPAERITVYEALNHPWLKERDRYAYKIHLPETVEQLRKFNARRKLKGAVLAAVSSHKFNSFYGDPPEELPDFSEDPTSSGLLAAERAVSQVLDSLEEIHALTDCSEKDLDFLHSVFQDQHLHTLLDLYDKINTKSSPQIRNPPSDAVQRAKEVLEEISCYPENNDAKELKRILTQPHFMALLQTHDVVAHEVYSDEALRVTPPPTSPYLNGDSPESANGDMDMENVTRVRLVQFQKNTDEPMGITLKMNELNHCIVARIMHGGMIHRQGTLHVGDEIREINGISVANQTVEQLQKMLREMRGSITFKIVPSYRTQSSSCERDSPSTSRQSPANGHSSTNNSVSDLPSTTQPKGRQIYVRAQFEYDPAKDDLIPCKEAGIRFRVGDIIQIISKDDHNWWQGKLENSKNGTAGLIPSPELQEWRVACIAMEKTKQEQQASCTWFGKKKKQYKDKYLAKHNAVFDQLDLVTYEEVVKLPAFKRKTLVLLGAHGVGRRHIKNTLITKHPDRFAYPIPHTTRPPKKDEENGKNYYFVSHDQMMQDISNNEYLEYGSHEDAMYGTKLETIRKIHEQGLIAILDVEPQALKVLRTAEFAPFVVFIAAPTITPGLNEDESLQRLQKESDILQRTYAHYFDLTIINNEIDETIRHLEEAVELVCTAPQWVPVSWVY
Chain of Serine/threonine-protein kinase SIK2 ; SIK2 ; Q9H0K1 (Q9H0K1 whole entry, one chain of several): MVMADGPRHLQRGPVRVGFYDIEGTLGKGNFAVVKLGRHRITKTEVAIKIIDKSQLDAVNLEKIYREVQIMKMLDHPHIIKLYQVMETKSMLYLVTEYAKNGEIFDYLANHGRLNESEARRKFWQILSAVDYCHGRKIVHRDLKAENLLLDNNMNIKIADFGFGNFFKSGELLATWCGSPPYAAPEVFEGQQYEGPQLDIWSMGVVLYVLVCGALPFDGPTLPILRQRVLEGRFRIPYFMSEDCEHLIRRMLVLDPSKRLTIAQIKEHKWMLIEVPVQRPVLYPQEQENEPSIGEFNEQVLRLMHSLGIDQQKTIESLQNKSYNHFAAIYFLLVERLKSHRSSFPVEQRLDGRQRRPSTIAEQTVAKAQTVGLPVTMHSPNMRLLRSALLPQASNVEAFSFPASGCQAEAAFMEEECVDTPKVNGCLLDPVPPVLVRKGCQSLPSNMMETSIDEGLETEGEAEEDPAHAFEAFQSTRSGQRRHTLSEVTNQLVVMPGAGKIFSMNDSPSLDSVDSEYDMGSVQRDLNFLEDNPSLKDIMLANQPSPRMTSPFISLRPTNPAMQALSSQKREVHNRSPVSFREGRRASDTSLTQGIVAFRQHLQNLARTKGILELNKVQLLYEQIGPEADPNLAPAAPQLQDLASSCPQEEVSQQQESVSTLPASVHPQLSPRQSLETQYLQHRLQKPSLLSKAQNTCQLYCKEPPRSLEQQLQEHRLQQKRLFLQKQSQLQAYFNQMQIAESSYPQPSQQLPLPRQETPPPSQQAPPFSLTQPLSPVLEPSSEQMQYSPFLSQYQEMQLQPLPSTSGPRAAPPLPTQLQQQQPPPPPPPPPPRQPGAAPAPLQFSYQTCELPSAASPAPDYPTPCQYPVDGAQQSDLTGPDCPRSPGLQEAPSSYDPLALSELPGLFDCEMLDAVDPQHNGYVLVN
Chain of Dual specificity testis-specific protein kinase 1 ; TESK1 ; Q15569 (Q15569 whole entry): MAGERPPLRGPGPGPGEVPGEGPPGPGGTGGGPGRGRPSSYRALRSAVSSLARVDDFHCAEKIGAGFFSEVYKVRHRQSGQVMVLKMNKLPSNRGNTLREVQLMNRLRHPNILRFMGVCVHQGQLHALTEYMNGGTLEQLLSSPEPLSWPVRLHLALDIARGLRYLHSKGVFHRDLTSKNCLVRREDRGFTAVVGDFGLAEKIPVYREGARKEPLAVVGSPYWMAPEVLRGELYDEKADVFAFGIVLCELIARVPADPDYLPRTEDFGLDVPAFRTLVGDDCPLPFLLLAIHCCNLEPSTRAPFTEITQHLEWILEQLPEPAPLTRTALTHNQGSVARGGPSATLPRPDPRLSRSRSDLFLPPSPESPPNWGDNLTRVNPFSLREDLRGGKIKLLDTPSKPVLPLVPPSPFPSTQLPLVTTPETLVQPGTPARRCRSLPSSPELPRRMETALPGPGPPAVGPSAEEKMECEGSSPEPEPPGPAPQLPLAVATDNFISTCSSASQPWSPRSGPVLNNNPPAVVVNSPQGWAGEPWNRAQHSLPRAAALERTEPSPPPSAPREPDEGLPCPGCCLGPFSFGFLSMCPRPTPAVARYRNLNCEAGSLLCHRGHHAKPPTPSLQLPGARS
Chain of Phosphatidylinositol 4-kinase alpha ; PI4KA ; P42356 (P42356 whole entry): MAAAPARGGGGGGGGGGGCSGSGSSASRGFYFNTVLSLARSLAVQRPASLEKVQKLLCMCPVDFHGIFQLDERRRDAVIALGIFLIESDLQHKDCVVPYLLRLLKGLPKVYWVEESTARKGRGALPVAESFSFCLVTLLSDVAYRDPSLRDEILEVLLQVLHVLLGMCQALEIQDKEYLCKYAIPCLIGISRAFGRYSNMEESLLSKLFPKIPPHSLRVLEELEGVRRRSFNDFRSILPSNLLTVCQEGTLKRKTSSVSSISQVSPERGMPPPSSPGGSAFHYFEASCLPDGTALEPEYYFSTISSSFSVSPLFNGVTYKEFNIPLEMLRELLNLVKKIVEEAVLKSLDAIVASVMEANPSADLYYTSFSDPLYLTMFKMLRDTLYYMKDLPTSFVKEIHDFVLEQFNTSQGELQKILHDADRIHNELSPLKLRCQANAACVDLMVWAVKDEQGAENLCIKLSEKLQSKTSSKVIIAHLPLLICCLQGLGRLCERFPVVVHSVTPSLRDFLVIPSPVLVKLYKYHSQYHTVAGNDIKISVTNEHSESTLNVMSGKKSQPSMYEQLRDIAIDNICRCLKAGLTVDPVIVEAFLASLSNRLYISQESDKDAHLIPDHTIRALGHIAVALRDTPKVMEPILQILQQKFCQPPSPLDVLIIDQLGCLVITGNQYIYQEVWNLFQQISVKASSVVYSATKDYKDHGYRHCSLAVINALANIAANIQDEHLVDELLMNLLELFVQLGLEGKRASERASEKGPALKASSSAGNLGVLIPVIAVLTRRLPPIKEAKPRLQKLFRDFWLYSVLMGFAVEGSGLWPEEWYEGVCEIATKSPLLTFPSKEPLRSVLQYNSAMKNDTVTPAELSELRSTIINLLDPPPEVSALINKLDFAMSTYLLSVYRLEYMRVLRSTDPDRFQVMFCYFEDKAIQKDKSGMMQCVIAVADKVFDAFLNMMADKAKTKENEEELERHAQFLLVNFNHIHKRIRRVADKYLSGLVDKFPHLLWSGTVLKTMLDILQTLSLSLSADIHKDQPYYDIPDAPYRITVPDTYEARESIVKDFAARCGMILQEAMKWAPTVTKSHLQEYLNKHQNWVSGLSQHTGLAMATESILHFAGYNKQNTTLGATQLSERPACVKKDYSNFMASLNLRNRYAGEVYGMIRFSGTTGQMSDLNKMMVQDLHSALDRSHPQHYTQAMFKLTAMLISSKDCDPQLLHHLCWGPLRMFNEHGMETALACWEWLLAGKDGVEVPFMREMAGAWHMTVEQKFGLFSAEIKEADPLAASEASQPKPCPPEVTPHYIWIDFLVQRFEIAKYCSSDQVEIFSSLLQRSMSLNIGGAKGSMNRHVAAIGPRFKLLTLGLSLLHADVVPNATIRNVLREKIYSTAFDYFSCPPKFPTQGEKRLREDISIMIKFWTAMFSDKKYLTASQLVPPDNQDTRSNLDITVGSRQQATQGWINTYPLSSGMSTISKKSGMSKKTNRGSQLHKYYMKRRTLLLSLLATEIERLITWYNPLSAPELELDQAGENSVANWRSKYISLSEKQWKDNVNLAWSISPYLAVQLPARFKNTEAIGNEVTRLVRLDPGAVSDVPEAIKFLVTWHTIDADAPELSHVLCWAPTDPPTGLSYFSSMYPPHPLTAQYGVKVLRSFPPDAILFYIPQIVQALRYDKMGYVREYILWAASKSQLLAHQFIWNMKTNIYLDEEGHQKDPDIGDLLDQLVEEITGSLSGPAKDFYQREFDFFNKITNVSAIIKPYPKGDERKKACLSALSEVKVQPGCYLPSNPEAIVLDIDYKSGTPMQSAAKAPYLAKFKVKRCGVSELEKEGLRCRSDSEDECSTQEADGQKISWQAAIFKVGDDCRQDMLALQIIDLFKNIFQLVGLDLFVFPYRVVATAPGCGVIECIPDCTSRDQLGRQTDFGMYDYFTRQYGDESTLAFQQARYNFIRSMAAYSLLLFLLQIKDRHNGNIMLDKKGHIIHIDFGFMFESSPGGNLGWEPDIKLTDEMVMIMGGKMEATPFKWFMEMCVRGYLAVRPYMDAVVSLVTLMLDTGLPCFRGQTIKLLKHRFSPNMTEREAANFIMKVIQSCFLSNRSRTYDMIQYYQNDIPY

Cc1nc(Nc2ncc(C(=O)Nc3c(C)cccc3Cl)s2)cc(N2CCN(CCO)CC2)n1 [dasatinib]
DIA-MS / % Intensity (30 µM/DMSO) [1]: 14.82%
DIA-MS / % Intensity (30 µM/DMSO) [2]: 3.776%
DIA-MS / % Intensity (30 µM/DMSO) [3]: 2.942%
DIA-MS / % Intensity (30 µM/DMSO) [4]: 30.34%
DIA-MS / % Intensity (30 µM/DMSO) [5]: 12.26%
DIA-MS / % Intensity (30 µM/DMSO) [6]: 31.25%
DIA-MS / % Intensity (30 µM/DMSO) [7]: 21.6%
DIA-MS / % Intensity (30 µM/DMSO) [8]: 31.23%
DIA-MS / % Intensity (30 µM/DMSO) [9]: 2.882%
DIA-MS / % Intensity (30 µM/DMSO) [10]: 0.9845%
DIA-MS / % Intensity (30 µM/DMSO) [11]: 11.5%

— doi:10.1101/2024.08.13.607785v1 (biorxiv, 2024)
